The target in assay [1] is T1, Polyunsaturated fatty acid 5-lipoxygenase (Homo sapiens) (UniProt P09917).
T1 sequence (whole entry): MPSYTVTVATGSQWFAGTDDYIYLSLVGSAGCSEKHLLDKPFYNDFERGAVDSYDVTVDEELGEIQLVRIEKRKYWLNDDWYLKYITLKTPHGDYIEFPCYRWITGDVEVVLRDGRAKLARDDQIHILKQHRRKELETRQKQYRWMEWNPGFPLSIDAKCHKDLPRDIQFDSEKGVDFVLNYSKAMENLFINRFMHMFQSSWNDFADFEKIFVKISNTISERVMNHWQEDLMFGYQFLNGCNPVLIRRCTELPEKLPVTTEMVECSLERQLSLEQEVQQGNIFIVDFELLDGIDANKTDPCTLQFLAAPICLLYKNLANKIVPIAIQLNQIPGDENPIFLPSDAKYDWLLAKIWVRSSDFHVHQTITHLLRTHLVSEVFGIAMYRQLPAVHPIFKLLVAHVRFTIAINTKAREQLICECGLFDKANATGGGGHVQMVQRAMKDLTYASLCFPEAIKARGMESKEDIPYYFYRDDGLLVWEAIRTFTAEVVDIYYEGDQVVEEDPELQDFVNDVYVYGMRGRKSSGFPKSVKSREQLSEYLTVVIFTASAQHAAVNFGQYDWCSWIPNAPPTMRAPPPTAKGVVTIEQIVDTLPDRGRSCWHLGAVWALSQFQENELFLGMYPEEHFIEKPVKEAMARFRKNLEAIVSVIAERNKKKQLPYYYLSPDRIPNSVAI
The assay can be described thus: Inhibition of 5-LOX (unknown origin) using arachidonic acid as substrate at 10 uM by cell based assay.

The target in assay [2] is T2, Prostaglandin G/H synthase 2 (Homo sapiens) (UniProt P35354).
T2 sequence (whole entry): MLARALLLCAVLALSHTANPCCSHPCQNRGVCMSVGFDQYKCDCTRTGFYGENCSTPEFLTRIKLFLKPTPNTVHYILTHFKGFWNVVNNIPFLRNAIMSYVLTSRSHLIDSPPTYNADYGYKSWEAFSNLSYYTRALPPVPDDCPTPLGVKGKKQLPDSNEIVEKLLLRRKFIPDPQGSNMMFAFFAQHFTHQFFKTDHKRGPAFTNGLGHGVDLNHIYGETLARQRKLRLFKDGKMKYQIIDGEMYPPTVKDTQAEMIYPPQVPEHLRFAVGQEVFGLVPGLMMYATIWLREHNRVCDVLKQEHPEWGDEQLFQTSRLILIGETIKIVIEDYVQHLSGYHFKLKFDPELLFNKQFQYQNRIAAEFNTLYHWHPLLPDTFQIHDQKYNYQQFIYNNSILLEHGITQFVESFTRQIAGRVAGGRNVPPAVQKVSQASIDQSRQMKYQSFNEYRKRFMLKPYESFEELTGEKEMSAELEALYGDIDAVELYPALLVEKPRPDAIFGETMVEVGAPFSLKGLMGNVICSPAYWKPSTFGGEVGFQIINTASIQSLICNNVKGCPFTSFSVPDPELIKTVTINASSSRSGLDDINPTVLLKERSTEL
In words: Inhibition of COX2 (unknown origin) using arachidonic acid as substrate at 10 uM.

The target of assay [3] is T3, Polyunsaturated fatty acid lipoxygenase ALOX12 (Homo sapiens) (UniProt P18054).
T3 sequence (whole entry): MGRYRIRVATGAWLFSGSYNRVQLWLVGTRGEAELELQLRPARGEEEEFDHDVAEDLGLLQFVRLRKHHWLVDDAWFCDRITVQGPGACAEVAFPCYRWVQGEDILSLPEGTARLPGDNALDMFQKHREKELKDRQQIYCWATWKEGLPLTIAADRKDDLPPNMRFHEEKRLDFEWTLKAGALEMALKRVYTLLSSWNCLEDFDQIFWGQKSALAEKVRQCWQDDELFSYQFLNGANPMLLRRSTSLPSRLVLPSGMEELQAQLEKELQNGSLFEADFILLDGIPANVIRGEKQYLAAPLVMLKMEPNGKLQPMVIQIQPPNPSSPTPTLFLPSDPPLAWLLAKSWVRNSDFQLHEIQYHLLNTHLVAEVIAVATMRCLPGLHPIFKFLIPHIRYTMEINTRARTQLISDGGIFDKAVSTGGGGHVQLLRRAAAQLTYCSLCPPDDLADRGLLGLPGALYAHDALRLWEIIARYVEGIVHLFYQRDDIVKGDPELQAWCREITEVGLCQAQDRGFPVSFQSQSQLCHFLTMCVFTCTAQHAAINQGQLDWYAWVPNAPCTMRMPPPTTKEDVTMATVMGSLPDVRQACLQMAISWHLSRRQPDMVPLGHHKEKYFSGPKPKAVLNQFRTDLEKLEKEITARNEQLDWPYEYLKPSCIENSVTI
In words: Inhibition of 12-LOX (unknown origin) using arachidonic acid as substrate at 10 uM.

The target in assay [4] is T1, Polyunsaturated fatty acid 5-lipoxygenase (Homo sapiens). In words: Inhibition of 5-LOX (unknown origin) using arachidonic acid as substrate at 10 uM.
Assay [5] concerns the target Prostaglandin G/H synthase 1 (Homo sapiens) (UniProt P23219). In words: Inhibition of COX1 (unknown origin) using arachidonic acid as substrate at 10 uM.
The target of assay [6] is T4, Polyunsaturated fatty acid lipoxygenase ALOX15 (Homo sapiens, UniProt P16050).
T4 sequence (P16050 whole entry): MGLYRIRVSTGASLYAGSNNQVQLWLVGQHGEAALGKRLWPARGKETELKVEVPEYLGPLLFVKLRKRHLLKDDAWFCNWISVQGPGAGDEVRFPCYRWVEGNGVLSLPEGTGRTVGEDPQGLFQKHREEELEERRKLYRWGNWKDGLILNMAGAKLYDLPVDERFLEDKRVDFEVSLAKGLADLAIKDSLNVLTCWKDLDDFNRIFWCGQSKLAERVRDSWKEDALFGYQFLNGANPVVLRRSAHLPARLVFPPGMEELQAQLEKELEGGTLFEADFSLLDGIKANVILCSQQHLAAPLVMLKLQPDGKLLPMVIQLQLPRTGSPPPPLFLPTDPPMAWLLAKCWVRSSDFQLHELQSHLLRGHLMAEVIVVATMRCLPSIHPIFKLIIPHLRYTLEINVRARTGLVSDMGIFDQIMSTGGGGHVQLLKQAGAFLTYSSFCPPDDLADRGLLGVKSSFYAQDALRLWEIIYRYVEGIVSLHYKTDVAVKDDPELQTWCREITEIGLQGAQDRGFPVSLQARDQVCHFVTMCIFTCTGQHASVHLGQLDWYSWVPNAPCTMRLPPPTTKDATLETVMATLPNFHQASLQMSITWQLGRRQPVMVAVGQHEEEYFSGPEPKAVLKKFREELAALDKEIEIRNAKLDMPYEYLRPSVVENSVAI
In words: Inhibition of human 15-LOX-1 using arachidonic acid as substrate by cell based assay.

In assay [7] the target is T4, Polyunsaturated fatty acid lipoxygenase ALOX15. In words: Inhibition of human 15-LOX-1 using arachidonic acid as substrate.

Experimental findings from ChEMBL document CHEMBL3596137, “N-Substituted pyrazole-3-carboxamides as inhibitors of human 15-lipoxygenase” (Bioorg Med Chem Lett, 2015) are described below.

Each structure is given as a SMILES string. Active and inactive are the calls of the source. No cut-off for these calls is given here.

Chain of Prostaglandin G/H synthase 1 (Homo sapiens) (P23219 whole entry): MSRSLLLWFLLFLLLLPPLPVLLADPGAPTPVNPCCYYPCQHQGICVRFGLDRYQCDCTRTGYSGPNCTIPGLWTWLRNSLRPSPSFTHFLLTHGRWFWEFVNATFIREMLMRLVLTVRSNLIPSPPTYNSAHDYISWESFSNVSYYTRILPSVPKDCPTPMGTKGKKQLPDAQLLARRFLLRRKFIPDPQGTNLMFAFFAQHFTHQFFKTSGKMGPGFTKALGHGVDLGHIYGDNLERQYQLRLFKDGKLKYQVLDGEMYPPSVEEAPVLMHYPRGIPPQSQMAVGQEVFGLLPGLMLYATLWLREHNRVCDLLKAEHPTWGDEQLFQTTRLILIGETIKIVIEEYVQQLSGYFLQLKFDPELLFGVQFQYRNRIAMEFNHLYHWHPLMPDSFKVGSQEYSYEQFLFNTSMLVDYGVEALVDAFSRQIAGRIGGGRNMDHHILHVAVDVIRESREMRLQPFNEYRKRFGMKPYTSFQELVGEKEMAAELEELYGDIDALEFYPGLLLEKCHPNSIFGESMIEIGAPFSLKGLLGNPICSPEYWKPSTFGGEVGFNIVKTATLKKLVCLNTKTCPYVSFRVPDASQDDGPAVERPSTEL

For the compound `O=C(Nc1ccccc1Cl)c1ccn(C(=O)c2cccc(Cl)c2)n1`, the inhibition in assay [1] was found to be 16%; in assay [3], 18%; in assay [4], 8%; in assay [5], 11%. Further, the inhibition result in assay [2] is “inactive”.
Take `O=C(Nc1ccc(F)cc1Cl)c1ccn(S(=O)(=O)c2cccc(C(F)(F)F)c2)n1`: the IC50 in assay [6] (read-out: IC50) is 1.06 µM; in assay [7] (read-out: IC50), 1.94 µM.
On to `Cn1cc(Cl)c(C(=O)Nc2ccc(F)cc2Cl)n1`, for which the IC50 entry in assay [6] is “Not Active”.
For `CN(C)S(=O)(=O)n1ccc(C(=O)Nc2ccc(F)cc2Cl)n1`, the IC50 entry in assay [6] was “Not Active”.
Turning to `O=C(Nc1ccc(F)cc1Cl)c1ccn(C(=O)Cc2ccccc2)n1`, in assay [6], the IC50 entry is recorded as “Not Active”.
With `CCCCCCNC(=O)n1cc(CCCC)c(C(=O)Nc2ccc(F)cc2Cl)n1`, the IC50 entry in assay [6] and in assay [7] was “Not Active” each time.
